One assay concerns PEN-2. Description: PEN-2 protein levels in transfected Drosophilia S2 cells (Western analysis). The following applies: concentration not given. It counts as cell-based. The source says:
(§1) In order to determine if Fkbp13 can also affect the stability of other components of the γ-secretase complex, Drosophilia S2 cells were transfected with tagged constructs expressing APH-1, PEN-2 or Nct and then examined for the effects of FK506 on protein levels.
(§2) cDNA's encoding APH-1, PEN-2 and Nct were subcloned into pAc5.1/V5-HisA or pIB/V5-His TOPO and transiently transfected into Drosophilia S2 cells using cellfectin according to the manufacturer's protocol (Invitrogen). Cells were collected between 24-48 hours for Western analysis using the following antibodies: monoclonal anti-V5 1:5000(Invitrogen), monoclonal anti-HA 1:2000(Roche), monoclonal anti-FLAG M2 1:5000(Sigma) and monoclonal anti-β-tubulin 1:1000 (DSHB).
(§3) In contrast, no effect was observed on the levels of either APH-1 or Nct (FIG. 4A). […] Drosophilia S2 cells were transfected with tagged versions of APH-1, PEN-2 or Nct and treated with 50 μM FK506 over a 24 hour period. No effect was observed on the levels of APH-1, Nct or β-tubulin control. Similarly, no effect was observed using either DMSO (control) or the known γ-secretase inhibitor, DAPT.

A further assay has as its target T1, γ-secretase (Homo sapiens, UniProt P49768).
T1 construct: expressed in transfected cells; host or cells: Cos-7 stably expressing APP C99 (pCEP4-SPA4CT-DA)
Put plainly: Aβ1-40 sandwich ELISA in Cos-7 cells stably expressing APP C99 and transfected with human PS1. The format is cell-based. Here is the method: To determine the effect of drug treatment on Psn stability, HEK293 cells were transiently co-transfected with psn and Fkbp13 constructs. 24 hours after transfection, 100 mm dishes of transfected HEK293 cells were treated with 5 μM FK506 (CALBIOCHEM), 1 μM Rapamycin (CALBIOCHEM) or DMSO (control), harvested at various time points and analyzed by Western blotting techniques. To measure Aβ40, Cos-7 cells were transfected with pCEP4-SPA4CT-DA (gift from Dr. Gunter Merdes, ZMBH, University of Heidelberg) that contains an APP^C99 cDNA using lipofectin (Gibco) according to the manufacturers protocol. Cells stably expressing APP^C99 were selected using 300 μg/ml hygromycin and maintained in DMEM medium containing 10% FBS, […] penicillin-streptomycin and 100 μg/ml hygromycin. These cells were then transiently transfected with plasmids carrying human PS1. 48 hours after transfection, cells were starved in serum-free DMEM medium for 2 hours, then treated with 1 μm of the γ-secretase inhibitor DAPT or 0.5 μm of the Fkbp13 inhibitor rapamycin or FK506 respectively, in DMEM medium containing 5% FBS o/n. Cells then were harvested and lysed and the conditioned lysates were used to measure Aβ1-40 by sandwich ELISA as described in (Yan et al. Nature 402:533-537 1999)using 6E10 (Senetek) as the capture antibody and the polyclonal Pan-β-Amyloid (Oncogene) for detection of Aβ40. […]

A further assay deals with human PS-1. Description: 35S-methionine pulse-chase of PS1 stability in Cos-7 cells. The conditions noted are these: Cos-7 cells transfected with human PS-1, in the presence of FK506; without FK506 3.5±0.2 h. It counts as cell-based. Here is the method:
In order to confirm that FK506 was affecting the stability of PS1 a pulse-chase of ^35S-methionine was performed and the amount of PS1 remaining after various chase periods was measured by immunoprecipitation and autoradiography.
Pulse-chase labeling of cells was performed using TRAN ^35S-LABEL™ Metabolic Labeling Reagent (ICN). Cos-7 cells were transiently transfected with human PS-1. After 48 hours, cells were washed with PBS and then starved in the presence of methionine and cysteine free DMEM (Invitrogen) containing 10% dialyzed fetal bovine serum for 1 hour at 37° C. Cells were then incubated with [^35S] methionine (400 μCi/ml) in the presence or absence of FK506 for an additional 2 hours. The cells were then washed with 10 ml of PBS twice and chased with DMEM containing the indicated reagents for various times. Cells were then harvested and lysed in IP buffer and TCA precipitated to quantify the incorporation of ^35S-methionine. Equal amounts of microsomal fractions from radioactive cells were then incubated with 2 μg of anti-human PS1. Subsequently, […] of protein A agarose beads (Invitrogen) were added to the IP reactions and rotated for 2 hours at 4° C. The beads were then washed 4 times with IP washing buffer, denatured in 2× SDS-PAGE sample buffer and run on 12% SDS-PAGE.

The next assay deals with Actin. Description: Actin levels in HEK293 cells transfected with Fkbp13 and Psn (Western blot). It counts as cell-based. The following applies: treated for 1-24 hours. Here is the method:
Protein quantification, SDS-polyacrylamide gel electrophoresis (5-12% or 8-12% gradient gel, or 10% SDS-PAGE) and immunoblot analysis were carried out as described previously (Guo et al. Journal of Cell Science 113:3499-3508 2000) using the monoclonal antibodies, anti-β-actin and anti-FLAG (Sigma), anti-GFP (Santa Cruz Biotechnology), anti-HA (12c-A5, Roche), anti-β-tubulin (Developmental Studies Hybridoma Bank), anti-Xpress and anti-V5 (Invitrogen) and a polyclonal anti-GFP (Santa Cruz Biotechnology). Microsomal fractions were prepared from cells using a detergent-free protocol. All steps were performed at <4° C. Cell pellets were resuspended in 300 μl hypo-osmotic buffer (20 mM Tris/HCl, pH 7.5) supplemented with complete protease inhibitor (Roche), homogenized through a 27G needle and sonicated. Nuclei were removed by centrifugation (1200 g, 25 minutes) and the post-nuclear supernatant (containing membrane and soluble fractions) was denatured for 5 minutes at 100° C. in SDS-PAGE sample buffer. […]
(§4) To determine the effect of drug treatment on Psn stability, HEK293 cells were transiently co-transfected with psn and Fkbp13 constructs. 24 hours after transfection, 100 mm dishes of transfected HEK293 cells were treated with 5 μM FK506 (CALBIOCHEM), 1 μM Rapamycin (CALBIOCHEM) or DMSO (control), harvested at various time points and analyzed by Western blotting techniques. […]

The next assay relates to APH-1. Put plainly: APH-1 protein levels in transfected Drosophilia S2 cells (Western analysis). The format is cell-based. The following applies: 50 μM FK506 over a 24 hour period.
Text: as §1, §2, §3

The next assay concerns Nct. Put plainly: Nct protein levels in transfected Drosophilia S2 cells (Western analysis). The conditions noted are these: 50 μM FK506 over a 24 hour period. The format is cell-based.
Text: as §1, §2, §3

In a further assay the test system is Fkbp13. Put plainly: Fkbp13 levels in HEK293 cells transfected with Fkbp13 and Psn (Western blot). The format is cell-based, Drosophila. The conditions noted are these: treated for 1-24 hours. Here is the method: HEK293 cells were maintained at 37° C. and 5% CO2 in α-minimal essential medium (Hyclone) supplemented with 10% heat-inactivated fetal bovine serum and plated 24 hours before transfection. For each 10 cm tissue culture dish, 12-16 μg cDNA was used. HEK293 cells were transiently transfected with plasmids encoding Drosophila Rya-r44f, Fkbp13, or psn using calcium phosphate precipitation. The cells were harvested 40-42 hours afer transfection.
Protein quantification, SDS-polyacrylamide gel electrophoresis (5-12% or 8-12% gradient gel, or 10% SDS-PAGE) and immunoblot analysis were carried out as described previously (Guo et al. Journal of Cell Science 113:3499-3508 2000) using the monoclonal antibodies, anti-β-actin and anti-FLAG (Sigma), anti-GFP (Santa Cruz Biotechnology), anti-HA (12c-A5, Roche), anti-β-tubulin (Developmental Studies Hybridoma Bank), anti-Xpress and anti-V5 (Invitrogen) and a polyclonal anti-GFP (Santa Cruz Biotechnology). Microsomal fractions were prepared from cells using a detergent-free protocol. […]
as §4

For `C[C@H](NC(=O)Cc1cc(F)cc(F)c1)C(=O)N[C@H](C(=O)OC(C)(C)C)c1ccccc1` [DAPT], the “effect of DAPT on protein levels (PEN-2) in S2 cells” value with PEN-2 was “no effect”. The “β-amyloid peptide production (in words)” value at γ-secretase (APP C99 + human PS1, 1 μm DAPT or 0.5 μm rapamycin o/n) is “comparable”.

For the compound `C=CC[C@@H]1/C=C(\C)C[C@H](C)C[C@H](OC)[C@H]2O[C@@](O)(C(=O)C(=O)N3CCCC[C@H]3C(=O)O[C@H](/C(C)=C/[C@@H]3CC[C@@H](O)[C@H](OC)C3)[C@H](C)[C@@H](O)CC1=O)[C@H](C)C[C@@H]2OC` [FK506], in the assay on human PS-1, the PS1 half-life amounted to 1.25 ± 0.3 h. Besides, the “levels of Actin” value in the assay on Actin is “no effect”. In addition, the “levels of APH-1” value in the assay with APH-1 was “no effect”. In the assay on Nct, the “levels of Nct” value is “no effect”. Further, in the assay with Fkbp13, the “levels of Fkbp13” value is listed as “no effect”. The “decrease in the levels of β-amyloid peptide” value on γ-secretase (APP C99 + human PS1, 0.5 μm FK506 o/n, vs untreated or DMSO treated controls) is on record as 80%.

These data come from patent US20060084672A1, “Method for modification of y-secretase activity through inhibition of Fkbp13” (The Hospital for Sick Children, priority 2004, published 2006).
